Target: T1, ligand binding domain of human ROR gamma (Homo sapiens, UniProt P51449)
T1 construct: NM_001001523; expressed in transfected cells; host or cells: HEK293T
T1 sequence (P51449 247-497 isoform P51449-2): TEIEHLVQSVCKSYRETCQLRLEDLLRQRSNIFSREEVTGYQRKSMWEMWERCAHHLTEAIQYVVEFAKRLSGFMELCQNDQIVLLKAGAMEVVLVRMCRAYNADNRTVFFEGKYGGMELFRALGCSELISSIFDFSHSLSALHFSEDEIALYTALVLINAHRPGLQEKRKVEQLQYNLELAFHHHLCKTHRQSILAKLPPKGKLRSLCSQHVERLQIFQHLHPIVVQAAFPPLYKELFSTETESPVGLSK
Experiment: ROR gamma reporter gene assay (GAL4-RORγ LBD luciferase, Dual-Glo)
Type: cell-based
Details: HEK293T cells transfected with pM-ROR gamma, 8 concentrations 3.5 nM to 10.5 μM, 24 h incubation; read-out: result (pIC50, inhibition of RORγ transcriptional activity) (converted)
Experimental: Luciferase reporter gene assay was used to assess inhibition of RORγ transcriptional activity.
ROR gamma expression vector was prepared by inserting the ligand binding domain of human ROR gamma (amino acid 247-497 of Genbank Accession NO. NM_001001523) adjacent to the yeast GAL4 transcription factor DNA binding domain in the expression vector pM (Clontech). The resulting expression vector pM-ROR gamma was used in transfection experiments together with the pGL4 luciferase reporter plasmid (Promega) containing five copies of the UAS GAL4 recognition site and pRL-CMV plasmids (Promega) containing the constitutive CMV promoter and the renilla luciferase.
For preparing transfection reagent/DNA mixture, 1 μg pM-ROR gamma, 1 μg pGL4 5×UAS, 625 pg pRL-CMV and 6.25 μL FuGENE™ HD transfection reagent (Promega) were mixed in 0.25 mL OPTI-MEM™ (Life technologies) at room temperature. At the same time, Negative control DNA mixture was prepared by using 1 μg pM empty vector instead of pM-ROR gamma plasmid. After a fifteen minute incubation, 0.25 mL of transfection reagent/DNA mixture was added to 1,000,000 of HEK293T cells (ATCC) in 5 mL of OPTI-MEM™ containing 10% Charcoal Stripped Fetal Bovine Serum.
Transfected cells were seeded onto 384 well plate (10 μL/well) and the 7.5 nL of test compounds were added to the wells in 8 concentrations ranging from 3.5 nM to 10.5 μM. The compounds were dissolved in 100% DMSO and the final concentration of DMSO in the assay was 0.075%.
After 24 h of incubation at 37° C., 5% CO2 in a cell culture incubator, the Dual-Glo™ Luciferase Assay System was used to detect activity according to the manufacturer's instructions (Promega, Cat. No.: E2920).
Data was plotted and pIC50 values were calculated using the XLfit program (ID Business Solutions Ltd.).

Row | SMILES | IC50 [pM]
1 | CC(C)=CCN(CC(=O)c1c(Cl)cncc1Cl)C(=O)c1cnn([C@H]2CC[C@H](C(=O)O)CC2)c1C(F)(F)F [Example 35, trans-4-(4-((2-(3,5-dichloropyridin-4-yl)-2-oxoethyl)(3-methylbut-2-en-1-yl)carbamoyl)-5-(trifluoromethyl)-1H-pyrazol-1-yl)cyclohexanecarboxyic acid] | 112000
2 | CC1(C)CCC(CN(CC(=O)c2c(Cl)cncc2Cl)C(=O)c2cnn([C@H]3CC[C@H](C(=O)O)CC3)c2C(F)(F)F)CC1 [Example 36, trans-4-(4-((2-(3,5-dichloropyridin-4-yl)-2-oxoethyl)((4,4-dimethylcyclohexyl)methyl)carbamoyl)-5-(trifluorornethyl)-1H-pyrazol-1-yl)cyclohexanecarboxylic acid] | 117000
3 | O=C(CN(CC1CCC2(CC1)CC2)C(=O)c1cnn([C@H]2CC[C@H](C(=O)O)CC2)c1C(F)(F)F)c1c(Cl)cncc1Cl [Example 37, trans-4-(4-((2-(3,5-dichloropyridin-4-yl)-2-oxoethyl)(spiro[2.5]octan-6-ylmethyl)carbamoyl)-5-(trifluoromethyl)-1H-pyrazol-1-yl)cyclohexanecarboxylic acid] | 18600
4 | O=C(CN(C[C@@H]1CCOC1)C(=O)c1cnn([C@H]2CC[C@H](C(=O)O)CC2)c1C(F)(F)F)c1c(Cl)cncc1Cl [Example 38, trans-4-(4-((2-(3,5-dichloropyridin-4-yl)-2-oxoethyl)(((S)-tetrahydrofuran-3-yl)methyl)carbamoyl)-5-(trifluoromethyl)-1H-pyrazol-1-yl)cyclohexanecarboxylic acid] | 1.55e+06
5 | O=C(CN(C[C@H]1CCOC1)C(=O)c1cnn([C@H]2CC[C@H](C(=O)O)CC2)c1C(F)(F)F)c1c(Cl)cncc1Cl [Example 39, trans-4-(4-((2-(3,5-dichloropyridin-4-yl)-2-oxoethyl)(((R)-tetrahydrofuran-3-yl)methyl)carbamoyl)-5-(trifluoromethyl)-1H-pyrazol-1-yl)cyclohexanecarboxylic acid] | > 1e+07
6 | O=C(CN(Cc1ccccc1)C(=O)c1cnn([C@H]2CC[C@H](C(=O)O)CC2)c1C(F)(F)F)c1c(Cl)cncc1Cl [Example 40, trans-4-(4-(benzyl(2-(3,5-dichloropyridin-4-yl)-2-oxoethyl)carbamoyl)-5-(trifluoromethyl)-1H-pyrazol-1-yl)cyclohexanecarboxylic acid] | 56200

Continued, values first:

Row | IC50 [pM] | SMILES
7 | 29500 | O=C(CN(Cc1ccc(Cl)cc1)C(=O)c1cnn([C@H]2CC[C@H](C(=O)O)CC2)c1C(F)(F)F)c1c(Cl)cncc1Cl [Example 41, trans-4-(4-((4-chlorobenzyl)(2-(3,5-dichloropyridin-4-yl)-2-oxoethyl)carbamoyl)-5-(trifluoromethyl)-1H-pyrazol-1-yl)cyclohexanecarboxylic acid]
8 | 44700 | O=C(CN(Cc1cc(F)cc(F)c1)C(=O)c1cnn([C@H]2CC[C@H](C(=O)O)CC2)c1C(F)(F)F)c1c(Cl)cncc1Cl [Example 42, trans-4-(4-((2-(3,5-dichloropyridin-4-yl)-2-oxoethyl)(3,5-difluorobenzyl)carbamoyl)-5-(trifluoromethyl)-1H-pyrazol-1-yl)cyclohexanecarboxylic acid]
9 | 33900 | O=C(CN(Cc1cccc(F)c1F)C(=O)c1cnn([C@H]2CC[C@H](C(=O)O)CC2)c1C(F)(F)F)c1c(Cl)cncc1Cl [Example 43, trans-4-(4-((2-(3,5-dichloropyridin-4-yl)-2-oxoethyl)(2,3-difluorobenzyl)carbamoyl)-5-(trifluoromethyl)-1H-pyrazol-1-yl)cyclohexanecarboxylic acid]
10 | 14800 | O=C(CN(Cc1ccc(F)c(F)c1)C(=O)c1cnn([C@H]2CC[C@H](C(=O)O)CC2)c1C(F)(F)F)c1c(Cl)cncc1Cl [Example 44, trans-4-(4-((2-(3,5-dichloropyridin-4-yl)-2-oxoethyl)(3,4-difluorobenzyl)carbamoyl)-5-(trifluorornethyl)-1H-pyrazol-1-yl)cyclohexanecarboxylic acid]

Reference: patent US9365522B2, “Pyrazole amide derivative” (AMGEN INC., priority 2015, dated 2016)
